Target: PIK3CA (human) (UniProt P42336)
Experiment: Assessment of PIK3CA Kinase Activity

PIK3CA (human), sequence (P42336 whole entry, looked up): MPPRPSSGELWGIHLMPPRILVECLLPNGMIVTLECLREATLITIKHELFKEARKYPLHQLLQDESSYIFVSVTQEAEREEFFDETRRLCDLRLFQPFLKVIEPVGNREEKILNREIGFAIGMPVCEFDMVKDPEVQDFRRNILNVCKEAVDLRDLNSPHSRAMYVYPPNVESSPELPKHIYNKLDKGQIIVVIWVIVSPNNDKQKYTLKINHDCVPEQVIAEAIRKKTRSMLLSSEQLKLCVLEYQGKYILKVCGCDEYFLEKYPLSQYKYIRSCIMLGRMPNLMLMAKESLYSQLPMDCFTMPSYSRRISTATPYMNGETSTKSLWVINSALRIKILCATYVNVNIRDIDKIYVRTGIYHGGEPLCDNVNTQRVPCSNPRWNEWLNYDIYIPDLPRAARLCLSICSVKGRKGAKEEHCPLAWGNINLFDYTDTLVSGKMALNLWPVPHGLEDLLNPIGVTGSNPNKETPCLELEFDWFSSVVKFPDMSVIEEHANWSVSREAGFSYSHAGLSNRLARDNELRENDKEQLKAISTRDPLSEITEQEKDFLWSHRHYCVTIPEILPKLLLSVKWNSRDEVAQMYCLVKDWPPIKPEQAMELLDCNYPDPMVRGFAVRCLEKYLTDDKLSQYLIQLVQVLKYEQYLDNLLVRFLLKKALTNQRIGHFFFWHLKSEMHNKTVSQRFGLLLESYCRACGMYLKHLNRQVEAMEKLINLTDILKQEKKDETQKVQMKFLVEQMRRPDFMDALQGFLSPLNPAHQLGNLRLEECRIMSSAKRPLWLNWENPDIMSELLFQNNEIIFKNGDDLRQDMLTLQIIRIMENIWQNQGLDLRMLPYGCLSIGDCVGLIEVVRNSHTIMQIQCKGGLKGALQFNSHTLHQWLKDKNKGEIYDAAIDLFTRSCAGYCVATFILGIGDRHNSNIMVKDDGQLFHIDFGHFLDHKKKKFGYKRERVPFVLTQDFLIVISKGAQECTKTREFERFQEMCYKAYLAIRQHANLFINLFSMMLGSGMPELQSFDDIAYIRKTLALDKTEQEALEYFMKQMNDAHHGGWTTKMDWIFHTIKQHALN

| Structure (SMILES) | IC50 [nM] |
| --- | --- |
| CNC(=O)Nc1cnc2ccc(-c3ccc(OC)c(OC)c3)nc2n1 | < 5000 |
| CCNC(=O)Nc1cnc2ccc(-c3ccc(O)c(Cl)c3)nc2n1 | < 5000 |
| CCNC(=S)Nc1ccc2ncc(Nc3cc(OC)c(OC)c(OC)c3)nc2n1 | < 1000 |
| CNC(=S)Nc1cnc2ccc(-c3ccc(O)c(OC)c3)nc2n1 | < 1000 |
| COc1cc(-c2ccc3ncc(NC(=O)Nc4ccncc4)nc3n2)ccc1O | < 1000 |
| CCNC(=O)Nc1ccc2ncc(Nc3ccccc3O)nc2n1 | < 5000 |
| CCNC(=O)Nc1cnc2ccc(-c3ccc(O)c(OC)c3)nc2n1 | < 500 |
| COc1cc(-c2ccc3ncc(NC(=O)NC4CCCC4)nc3n2)ccc1O | < 1000 |
| CCNC(=S)Nc1ccc2ncc(Nc3ccc(OC)c(O)c3)nc2n1 | < 1000 |
| CCNC(=O)Nc1cnc2ccc(-c3cc(C)c(O)c(C)c3)nc2n1 | < 5000 |
| CCNC(=O)Nc1ccc2ncc(-c3ccc(OC)c(O)c3)nc2n1 | < 5000 |
| CCNC(=O)Nc1ccc2ncc(Nc3cccc(OC(F)F)c3)nc2n1 | < 5000 |
| COc1cc(-c2ccc3ncc(NC(=O)Nc4cccs4)nc3n2)ccc1O | < 1000 |
| CCNC(=O)Nc1ccc2ncc(Nc3cccc(O)c3)nc2n1 | < 5000 |
| CC(C)(C)NC(=O)Nc1cnc2ccc(-c3cc(Cl)c(O)c(Cl)c3)nc2n1 | < 5000 |
| COc1cc(-c2ccc3ncc(NC(=O)NC4CCN(C(=O)C(F)(F)F)CC4)nc3n2)ccc1O | < 1000 |
| CCNC(=O)Nc1ccc2ncc(-c3ccc(OC(C)=O)c(OC)c3)nc2n1 | < 5000 |
| COc1cc(Nc2cnc3ccc(NC(=S)NC4CCCC4)nc3n2)cc(OC)c1OC | < 1000 |
| O=C(Nc1cnc2ccc(-c3cc(Cl)c(O)c(Cl)c3)nc2n1)NC1CCCC1 | < 1000 |
| COc1cc(-c2ccc3ncc(NC(=O)NCCCl)nc3n2)ccc1O | < 1000 |
| CCNC(=O)Nc1ccc2ncc(Nc3ccc(O)c(C(=O)OC)c3)nc2n1 | < 1000 |
